Assay results taken from ChEMBL document CHEMBL1201862, “PubChem BioAssay data set” (2004).
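In this assay, cells in 96-well plates receive the compound at five concentrations for 48 hours. Endpoints are linearly interpolated between the surrounding concentrations. At the GI50, growth is halved.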 Active and inactive are the calls of the source. Cut-off read from the data, not from the text of the source: active = GI50 up to about 1.1 µM and inactive = higher.

Tests used:
Assay in all cases: NCI tumour cell line growth inhibition, 48 h
LOX IMVI = system: LOX IMVI
XF498 = system: XF498
COLO 205 = system: COLO 205
NCI-H460 = system: NCI-H460
SK-MEL-5 = system: SK-MEL-5
RXF 393 = system: RXF 393
K562 = system: K562
SR = system: SR
Hs-578T = system: Hs-578T
PC-3 = system: PC-3
UO-31 = system: UO-31
UACC-62 = system: UACC-62
LXFL 529 = system: LXFL 529
OVCAR-5 = system: OVCAR-5
NCI-H23 = system: NCI-H23
TK-10 = system: TK-10
HCT-15 = system: HCT-15
T47D = system: T47D
MDA-MB-435 = system: MDA-MB-435
A549 = system: A549
ACHN = system: ACHN
Malme-3M = system: Malme-3M
MDA-MB-231 = system: MDA-MB-231
HT-29 = system: HT-29
SF-295 = system: SF-295
CCRF-CEM = system: CCRF-CEM
SK-OV-3 = system: SK-OV-3
KM12 = system: KM12
HL-60 = system: HL-60
SW-620 = system: SW-620
NCI-H522 = system: NCI-H522
KM-20L2 = system: KM-20L2
RXF 631 = system: RXF 631
BT-549 = system: BT-549
MOLT-4 = system: MOLT-4
RPMI-8226 = system: RPMI-8226
OVCAR-4 = system: OVCAR-4
CAKI-1 = system: CAKI-1
MDA-N = system: MDA-N
SN12C = system: SN12C
SNB-75 = system: SNB-75
OVCAR-8 = system: OVCAR-8
SK-MEL-28 = system: SK-MEL-28
M14 = system: M14
A498 = system: A498
NCI-H226 = system: NCI-H226
HCT-116 = system: HCT-116
SF-539 = system: SF-539
SNB-78 = system: SNB-78
DMS-273 = system: DMS-273
OVCAR-3 = system: OVCAR-3
DU-145 = system: DU-145
SK-MEL-2 = system: SK-MEL-2
HOP-62 = system: HOP-62
EKVX = system: EKVX
DMS-114 = system: DMS-114
SNB-19 = system: SNB-19
U-251 = system: U-251
DLD-1 = system: DLD-1
M19-MEL = system: M19-MEL
UACC-257 = system: UACC-257
HOP-92 = system: HOP-92
HCC 2998 = system: HCC 2998
IGROV-1 = system: IGROV-1
HOP-18 = system: HOP-18
786-0 = system: 786-0
SF-268 = system: SF-268

Compound: O=C(c1ccc(Cl)cc1)C1OC12C(=O)Nc1ccccc12 (configuration not stated)
- GI50 (LOX IMVI): 1.45 µM (inactive)
- GI50 (XF498): 12.5 µM (inactive)
- GI50 (COLO 205): 2.86 µM (inactive)
- GI50 (NCI-H460): 18.5 µM (inactive)
- GI50 (SK-MEL-5): 12.1 µM (inactive)
- GI50 (RXF 393): 15.4 µM (inactive)
- GI50 (K562): 0.658 µM (active)
- GI50 (SR): 0.731 µM (active)
- GI50 (Hs-578T): 16.5 µM (inactive)
- GI50 (PC-3): 25.9 µM (inactive)
- GI50 (UO-31): 15.8 µM (inactive)
- GI50 (UACC-62): 14.8 µM (inactive)
- GI50 (LXFL 529): 3.08 µM (inactive)
- GI50 (OVCAR-5): 19.2 µM (inactive)
- GI50 (NCI-H23): 15.5 µM (inactive)
- GI50 (TK-10): 20.7 µM (inactive)
- GI50 (HCT-15): 4.74 µM
- GI50 (T47D): 16.3 µM (inactive)
- GI50 (MDA-MB-435): 16.9 µM (inactive)
- GI50 (A549): 23.9 µM (inactive)
- GI50 (ACHN): 15.1 µM (inactive)
- GI50 (Malme-3M): 4.55 µM (inactive)
- GI50 (MDA-MB-231): 21 µM (inactive)
- GI50 (HT-29): 8.51 µM (inactive)
- GI50 (SF-295): 18 µM (inactive)
- GI50 (CCRF-CEM): 0.388 µM (active)
- GI50 (SK-OV-3): 25.1 µM (inactive)
- GI50 (KM12): 15.6 µM (inactive)
- GI50 (HL-60): 0.349 µM (active)
- GI50 (SW-620): 3.52 µM (inactive)
- GI50 (NCI-H522): 1.91 µM (inactive)
- GI50 (KM-20L2): 19.4 µM (inactive)
- GI50 (RXF 631): 17 µM (inactive)
- GI50 (BT-549): 6.93 µM (inactive)
- GI50 (MOLT-4): 0.569 µM (active)
- GI50 (RPMI-8226): 2.4 µM (inactive)
- GI50 (OVCAR-4): 19.1 µM (inactive)
- GI50 (CAKI-1): 6.71 µM (inactive)
- GI50 (MDA-N): 3.64 µM (inactive)
- GI50 (SN12C): 6.01 µM (inactive)
- GI50 (SNB-75): 17.1 µM (inactive)
- GI50 (OVCAR-8): 12.1 µM (inactive)
- GI50 (SK-MEL-28): 15.2 µM (inactive)
- GI50 (M14): 6.18 µM (inactive)
- GI50 (A498): 19.7 µM (inactive)
- GI50 (NCI-H226): 20.3 µM (inactive)
- GI50 (HCT-116): 3.61 µM (inactive)
- GI50 (SF-539): 16 µM (inactive)
- GI50 (SNB-78): 16 µM (inactive)
- GI50 (DMS-273): 12.7 µM (inactive)
- GI50 (OVCAR-3): 24.6 µM (inactive)
- GI50 (DU-145): 19.1 µM (inactive)
- GI50 (SK-MEL-2): 7.6 µM (inactive)
- GI50 (HOP-62): 35.1 µM (inactive)
- GI50 (EKVX): 18.1 µM (inactive)
- GI50 (DMS-114): 12.4 µM (inactive)
- GI50 (SNB-19): 40.9 µM (inactive)
- GI50 (U-251): 17.3 µM (inactive)
- GI50 (DLD-1): 2.42 µM (inactive)
- GI50 (M19-MEL): 10.4 µM (inactive)
- GI50 (UACC-257): 13.8 µM (inactive)
- GI50 (HOP-92): 10.8 µM (inactive)
- GI50 (HCC 2998): 19.9 µM (inactive)
- GI50 (IGROV-1): 19.8 µM (inactive)
- GI50 (HOP-18): 13.9 µM (inactive)
- GI50 (786-0): 11.7 µM (inactive)
- GI50 (SF-268): 16.8 µM (inactive)
